Entries after “also recorded” stand apart in the source; their conditions may differ.
Legend:
[1] = tested on: mutant HTT protein; test: Repeat oral dosing in BacHD mice: mutant HTT protein in tissues (Western blot); format: in vivo
Description: (§1) For the repeat dosing study, twenty-four BacHD mice (FVB/N-Tg(HTT*97Q)IXwy/J transgenic mice—Jackson Laboratories) were used for the experiment. Animal protocols were approved by the Children's Hospital of Philadelphia Institutional Animal Care and use Committee. Mice were housed in a temperature-controlled environment on a 12-h light/dark cycle. Food and water were provided ad libitum.
For the repeat dosing study, branaplam or vehicle was administered by oral gavage 3 times a week for 3 consecutive weeks. Mice were divided in 4 groups (n=6 mice/group) and treated with branaplam (12 mg/kg—1 group, or 24 mg/kg—2 groups), or vehicle (1 groups) as control. Mice were firmly restrained by grasping the loose skin to immobilize the head, maintained in a vertical position and a 22- to 26-gauge gavage needle was placed in the side of the mouth. The needle was guided following the roof of the mouth into the esophagus and allowed to gently enter in the stomach. The amount of branaplam or vehicle administrated to each mouse was based on the weight recorded the day of dosing.
At 24 h (vehicle and branaplam 12 mg/Kg & 24 mg/Kg), and 72 h (branaplam 24 mg/Kg) after the last treatment, blood, CSF, and tissue samples were obtained for PK and PD analysis. To collect CSF, mice were placed in a rodent anesthesia induction chamber where they are exposed to 4-5% isoflurane in 100% oxygen carrier gas. Once an appropriate plane of anesthesia was achieved, they were moved to a nose cone so that maintenance levels of isoflurane (1-3%) could be delivered throughout the procedure. The dorsal aspect of their cervical and occipital region was surgically prepped to visualize the dura mater under a microscope. A glass micropipette attached to a micromanipulator was introduced to the cisterna magna via a puncture through the dura mater at a point where no vasculature was visualized, and CSF was allowed to flow into the micropipette via capillary action. After approximately 15-30 minutes, the micropipette was removed from the cisterna magna, the CSF sample was transferred into Eppendorf tubes, flash frozen in liquid nitrogen, and stored at −80° C.
Following CSF collection, mice were kept under anesthesia with isoflurane. Blood was obtained via submandibular vein bleeds and collected for RNA extraction (PD analysis) using RNAprotect Animal Blood Tubes, and plasma (PK analysis) using K2EDTA coated tubes. […]
Snap-frozen mouse tissue samples were homogenized in RIPA buffer with protease and phosphatase inhibitor (Thermo Scientific) by Precellys at 6000 rpm for 40 sec. […] Total protein concentration was quantified using the BCA protein Assay (Thermo Scientific). […] Protein bands were quantified by Image J.

[2] = tested on: tHTT; test: Mutant and total HTT multiplex HTRF assay in Q48 HTT human embryonic stem cell line: tHTT; format: cell-based; settings: Q48 HTT hESC, 48 hours
How it was run: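 Q48 HTT hESCs from HD donors were treated with compound for 48 h at 37 °C after 24 h adherence, then lysed. Lysates were read by multiplex HTRF with N-terminal donor, polyQ (MW1) and post-polyQ (MAB2166) antibodies for 4-6 h at RT. Donor/acceptor ratios give relative mHTT and tHTT; pIC50 reported.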

[3] = tested on: total HTT transcript; test: Repeat oral dosing in BacHD mice: total HTT transcript in blood; format: in vivo; settings: 12 or 24 mg/kg oral, thrice weekly for three weeks; listed as branaplam
Description: as §1
For the repeat dosing study, branaplam or vehicle was administered by oral gavage 3 times a week for 3 consecutive weeks. Mice were divided in 4 groups (n=6 mice/group) and treated with branaplam (12 mg/kg—1 group, or 24 mg/kg—2 groups), or vehicle (1 groups) as control. […] The amount of branaplam or vehicle administrated to each mouse was based on the weight recorded the day of dosing. […]
RNA from blood was extracted using PAXgene blood RNA kit (Qiagen) according to manufacturer protocol. The RNA was quantified by Nanodrop 2000 (Thermo Scientific). cDNAs were synthesized from 140-400 ng RNA using Maxima First strand cDNA synthesis kit using a mix of oligo dT and random hexamers (Thermo Scientific) in 20 uL reaction at 25° C. for 10 min, 50° C. for 15 min then 85° C. for 5 min. Quantitative PCR was performed using Taqman Fast Advanced master mix (Thermo Scientific) in 20 uL with 4 uL of cDNA reaction and primers specific for each genes. […]

[4] = 12 or 24 mg/kg oral, thrice weekly for three weeks, 24 h post-dosing, listed as branaplam

CC1(C)CC(Oc2ccc(-c3ccc(-c4cn[nH]c4)cc3O)nn2)CC(C)(C)N1 [Compound 18, 5-(1H-pyrazol-4-yl)-2-(6-((2,2,6,6-tetramethylpiperidin-4-yl)oxy)pyridazin-3-yl)phenol]
mutant HTT protein, 72 h relative to 24 h ([1]; 24 mg/kg cohort, takedown 72 h post-dose): trend towards further lowering
mutant HTT protein in the cortex [1, 4]: dose dependent, significant lowering; also recorded: lowers
mutant HTT protein in the striatum [1, 4]: dose dependent, significant lowering; also recorded: lowers
mHTT protein in the liver ([1]; 12 or 24 mg/kg oral, thrice weekly for three weeks, listed as branaplam): robust lowering; also recorded: lowers
tHTT pIC50 [2]: 7.371
total HTT transcript in blood [3]: robust lowering; also recorded: lowers

Source: patent US20240216369A1, “THE USE OF A SPLICING MODULATOR FOR A TREATMENT SLOWING PROGRESSION OF HUNTINGTON'S DISEASE” (Novartis AG, priority 2019, published 2024)
